Experimental data: publication PMC12005472 (Chemmedchem, 2025)
Like-named read-outs stand apart in the source and are kept apart here.

Assays:
Endothiapepsin (EP) [1] = conditions: in words; ref not given; cited from earlier work
Endothiapepsin (EP) [2] = system: Endothiapepsin (EP)
Excerpt: The total proton exchange ( ΔnH^+ ) in a binding event can be determined by ITC measurements in different buffers with distinct heats of ionization ( ΔHionization ), according to the Eq. 1: (1) ΔHobserved=ΔHcorrected+ΔnH^+(ΔHionization)
Integrating the raw thermograms yields the experimentally observed enthalpies ( ΔHobserved ), which can be used for a linear regression with the slope corresponding to ΔnH^+ and the y‐axis intercept corresponding to the buffer‐corrected enthalpy of the binding reaction ( ΔHcorrected ).
Figure 3 Left: Calculation of the heat of ionization. The experimentally observed enthalpies ΔHobs are plotted against the heat of ionization ΔHion of the respective buffers (phosphate: 3.60 kJ mol^−1 ADA: 12.23 kJ mol^−1, HEPES: 20.04 kJ mol^−1, TRIS: 47.45 kJ mol^−1).[14] […] Right: Thermodynamic profiles of complex formation in phosphate, ADA, HEPES and TRIS buffers and the buffer‐corrected thermodynamic profile. For the buffer‐corrected profile, the change in Gibbs free energy ΔG is calculated as the average of ΔG observed in the four buffers, ΔH is obtained as described above, and the entropic contribution − TΔS is calculated from the numerical difference between ΔG and ΔH .
Cacodylate was excluded as a buffering agent due to its toxicity. […] 2.5 % (v/v) DMSO corresponds to a molar concentration of 0.35 M.
Each parameter alone can have a clear effect on the thermodynamic properties.[11] We used the MicroCal PEAQ‐ITC Automated ITC with a cell volume of 200 μL; 25 °C is a standard temperature, where most of the experiments are carried out, not only ITC. We followed standard protocols for protein, ligand, and buffer concentrations.[16]
The dialysis was performed in a 600 mL beaker. The membrane of the cassette was soaked in the dialysis buffer for 2 min by holding it (with gloves) in the beaker filled with dialysis buffer at pH 7.0 (TRIS, ADA, HEPES and phosphate, respectively). After pre‐soaking, the cassette was carefully dried with a paper towel to prevent buffer from entering the cassette, but without touching the membranes. 3 mL of at least 4 mg mL^−1 protein solution was added to the cassette using a 200 μL micropipette. When the cassette was closed with the stopper, any remaining air was gently evacuated from the dialysis chamber. The protein was then dialyzed against 500 mL of dialysis buffer for 2 hours at RT with slow stirring. The buffer was then replaced with 500 mL of fresh buffer and stirred again for 2 hours at RT. After another change of buffer, the dialysate was stored in the refrigerator overnight (12–20 hours). The next day, the protein solution was removed using a syringe with a long cannula. The protein was stored on ice before being shock frozen in liquid nitrogen to determine the concentration using NanoDrop™ 2000c (Thermo Scientific, USA).
ITC measurements were performed using the MicroCal PEAQ‐ITC Automated ITC (Malvern Panalytical, Worcestershire, UK). […] For the reference titration, the same titrant was titrated into the buffer solution. The obtained thermogram peaks of all titrations were integrated and fitted with MicroCal PEAQ‐ITC Analysis Software 1.41.

Endothiapepsin (EP) [3] = conditions: ITC; 80 μM EP, 1200 μM pepA, 20 mM buffer (ACES, Cacodylate, HEPES, Phosphate, TRIS), 16 °C, pH 7.0; ref 12 (Gómez and Freire); cited from earlier work
[4] = system: HIV-1 protease (HIV-1 PR); parameters: method as in PMID 1883831; conditions: experiment; cited from earlier work
Asp25 = Asp25 (UniProt position 93, KEALLDTGADD); conditions: cited from earlier work

Substance: Iva‐Val‐Val‐Sta‐Ala‐Sta [pepA]
- pH dependence of affinity (Endothiapepsin (EP) [1]): becomes higher at more acidic pH
- proton uptake upon pepA binding to EP, in words (Endothiapepsin (EP) [2]): uptake of more than one mole of protons
- total proton exchange ΔnH^+ (proton uptake per binding reaction) (Endothiapepsin (EP) [2]; ITC, slope of ΔHobs vs ΔHionization in phosphate, ADA, HEPES, TRIS, pH 7.0, 25 °C, 50 μM EP, 500 μM pepA, 100 mM buffer, 2.5 % DMSO, 0.1 % Tween20, on average): 1.67±0.12 protons per binding reaction
- enthalpic contribution (ΔHobserved) in TRIS (Endothiapepsin (EP) [2]; TRIS buffer 100 mM, pH 7.0, 25 °C, 2.5 % DMSO, 0.1 % Tween20): 7.34 ± 0.693 kcal/mol
- overall proton uptake (Endothiapepsin (EP) [2]; pH 7): 1.67±0.12 moles of protons
- total proton exchange ΔnH^+ (proton uptake) (Endothiapepsin (EP) [2]; pH 7): 1.67 ± 0.12 mol
- buffer-corrected enthalpy of the binding reaction ΔHcorrected (Endothiapepsin (EP) [2]; y-axis intercept of ΔHobs vs ΔHion in phosphate, ADA, HEPES, TRIS, pH 7.0, 25 °C): -12.7 kcal/mol
- proton exchange ΔnH^+ previously published (Endothiapepsin (EP) [3]): 1.1±0.1 protons

Substance: HIV‐1 PR: HIV-1 protease, an aspartic protease, used to calibrate the Poisson-Boltzmann methodology
- pKa of Asp25 [4]: 3.1
- pKa of Asp25’ [4]: 5.2

Substance: HIV-1 protease (Human immunodeficiency virus 1)
- pKa (Asp25): 3.1
- pKa (Asp25; record 2): 5.2
